Results reported in patent US20090054235A1, “Benzoheterocyclylethylbenzamide derivatives” (priority 2005, published 2009).

Tested on: Pyrenophora teres
Assay: In vivo test on Pyrenophora teres (preventive spray on barley plants)
Conditions: barley plants (Express variety), grading 12 days after contamination, in comparison with control plants
Procedure: The active ingredient tested is prepared by potter homogenisation in a concentrated suspension type formulation at 100 g/l. This suspension is then diluted with water to obtain the desired active material concentration.
Barley plants (Express variety) in starter cups, sown on a 50/50 peat soil-pozzolana substrate and grown at 12° C., are treated at the 1-leaf stage (10 cm tall) by spraying with the aqueous suspension described above. Plants, used as controls, are treated with an aqueous solution not containing the active material. After 24 hours, the plants are contaminated by spraying them with an aqueous suspension of Pyrenophora teres spores (12,000 spores per ml). The spores are collected from a 12-day-old culture. The contaminated barley plants are incubated for 24 hours at about 20° C. and at 100% relative humidity, and then for 12 days at 80% relative humidity.
Grading is carried out 12 days after the contamination, in comparison with the control plants.

Compound	protection (dose of 500 ppm)	protection (dose of 330 ppm)
O=C(NCCc1c[nH]c2ccc(Br)cc12)c1ccccc1C(F)F [N.[2-(5-bromo-1H-indol-3-yl)ethyl]-2-(difluoromethyl)benzamide]	no protection at all	
O=C(NCCc1c[nH]c2ccc(Br)cc12)c1ccccc1C(F)(F)F [N.[2-(5-bromo-1H-indol-3-yl)ethyl]-2-(trifluoromethyl)benzamide]		no protection at all
O=C(NCCc1c[nH]c2ccc(Br)cc12)c1ccccc1Cl [N.[2-(5-bromo-1H-indol-3-yl)ethyl]-2-chlorobenzamide]	no protection at all	
O=C(NCCc1c[nH]c2ccc(Br)cc12)c1ccccc1I [N.[2-(5-bromo-1H-indol-3-yl)ethyl]-2-iodobenzamide]	no protection at all	
